Series [1] concerns cyp1a1. Nature of the series: cyp1a1 expression by q-PCR in mouse Hepa-1c1c7 cells. The series is classed as cell-based. The following applies: mouse Hepa-1c1c7, 10 nM-10 μM, 8 hours. As for the experimental part:
RNA was extracted using TRIzol (Invitrogen) following manufacturer's instructions and 0.1 μg of RNA was converted to cDNA using a high capacity cDNA reverse transcription kit (Invitrogen). qPCR was performed on the Applied Biosystems 7900 using TaqMan® Universal PCR Master Mix (Life Technologies) with TaqMan® (Life Technologies) primers against cyp1a1 (Mm00487218_m1), AhR (Mm00478932_m1), IL-22 (Mm01226722_g1), Foxp3 (Mm00475162_m1), IL-10 (Mm01288386_m1), TNF-a (Mm00443258_m1), IFN-r (Mm01168134_m1). The fold increase from experimental groups to control was calculated using the delta-delta CT method with 18S (Mm00446186_m1) as an internal reference gene. In vitro and in vivo activation of the AhR singling pathway was confirmed by q-PCR characterization of cyp1a1. For in vitro induction, mouse Hepa-1c1c7 were cultured to confluence in 24 well plates in full DMEM followed by 24 hours incubation in tryptophan deficient media. Cells were treated with vehicle control (DMSO), ITE, compound 108, or compound 109 (10 nM-10 μM) for 8 hours in tryptophan deficient media. At the end of treatment, cells were lysed in TRIzol for RNA isolation. To monitor in vivo induction, (0.1-1000 μg) compound 109 was given per mouse via oral gavage in 100 μl of vehicle (1% HPMC, 1% polysorbate 80). After 12 hours, liver, colon, spleen and leukocytes from blood were collected and lysed in TRIzol (Invitrogen) for q-PCR analysis.

The target of series [2] is T1, AhR (Mus musculus, UniProt P30561).
T1 construct: endogenous in cells; host or cells: Hepa-1c1c7 (mouse hepatoma cell line)
As to the kind of experiment: AhR nuclear translocation assay, mouse Hepa-1c1c7. The series is classed as cell-based. The following applies: mouse Hepa-1c1c7, 10 μM, 90 minutes. As for the experimental part:
Mouse Hepa-1c1c7 or human HepG2 cells were seeded in 8 well chamber slides followed by 24 hours incubation in tryptophan deficient media (HBSS with Ca^2+ and Mg^2+, 10% heat inactivated FBS, 1× non-essential amino acids, 1× sodium pyruvate, 4.5 g/L glucose). Cells were treated with vehicle control (DMSO) or 10 μM ITE, compound 108, or compound 109 for 90 minutes in tryptophan deficient media. Following treatment, cells were fixed in 4% formaldehyde and processed according to standard immunofluorescence staining protocol. Primary anti-AhR antibody was applied at 1:100 dilution (Enzo, BML-SA210) and Alexa488 conjugated secondary antibody was applied at 1:500 dilution (Cell Signaling, 4412S). Actin was stained using Alexa 568 conjugated Phalloidin (Fisher). Samples were mounted in anti-fade mounting medium supplemented with DAPI for nuclear staining and imaged with confocal microscopy (Leica SP5×MP, 63× oil lens).

Entries after “also recorded” stand apart in the source; their conditions may differ.

T1 sequence (P30561 10-805 limits assumed): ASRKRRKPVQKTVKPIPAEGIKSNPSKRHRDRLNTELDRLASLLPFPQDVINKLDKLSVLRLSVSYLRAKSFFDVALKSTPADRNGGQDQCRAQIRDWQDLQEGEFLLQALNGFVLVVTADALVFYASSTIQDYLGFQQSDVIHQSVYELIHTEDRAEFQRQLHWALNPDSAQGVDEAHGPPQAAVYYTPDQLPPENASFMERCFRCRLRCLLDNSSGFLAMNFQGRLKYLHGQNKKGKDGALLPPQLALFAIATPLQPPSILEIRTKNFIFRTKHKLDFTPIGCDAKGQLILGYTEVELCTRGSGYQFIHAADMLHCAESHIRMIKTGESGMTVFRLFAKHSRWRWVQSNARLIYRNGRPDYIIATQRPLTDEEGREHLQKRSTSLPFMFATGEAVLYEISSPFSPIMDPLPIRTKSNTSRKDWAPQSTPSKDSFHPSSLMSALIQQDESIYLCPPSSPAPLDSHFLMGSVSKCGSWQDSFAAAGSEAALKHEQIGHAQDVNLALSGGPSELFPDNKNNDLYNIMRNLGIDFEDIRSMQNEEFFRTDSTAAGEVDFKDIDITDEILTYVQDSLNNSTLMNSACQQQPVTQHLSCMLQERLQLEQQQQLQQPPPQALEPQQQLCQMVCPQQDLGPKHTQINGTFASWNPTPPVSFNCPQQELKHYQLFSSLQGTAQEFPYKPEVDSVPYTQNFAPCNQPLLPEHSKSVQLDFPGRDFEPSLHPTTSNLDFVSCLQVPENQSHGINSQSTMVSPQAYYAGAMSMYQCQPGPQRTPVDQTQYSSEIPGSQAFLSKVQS
T1 sequence (P53762 whole entry partner): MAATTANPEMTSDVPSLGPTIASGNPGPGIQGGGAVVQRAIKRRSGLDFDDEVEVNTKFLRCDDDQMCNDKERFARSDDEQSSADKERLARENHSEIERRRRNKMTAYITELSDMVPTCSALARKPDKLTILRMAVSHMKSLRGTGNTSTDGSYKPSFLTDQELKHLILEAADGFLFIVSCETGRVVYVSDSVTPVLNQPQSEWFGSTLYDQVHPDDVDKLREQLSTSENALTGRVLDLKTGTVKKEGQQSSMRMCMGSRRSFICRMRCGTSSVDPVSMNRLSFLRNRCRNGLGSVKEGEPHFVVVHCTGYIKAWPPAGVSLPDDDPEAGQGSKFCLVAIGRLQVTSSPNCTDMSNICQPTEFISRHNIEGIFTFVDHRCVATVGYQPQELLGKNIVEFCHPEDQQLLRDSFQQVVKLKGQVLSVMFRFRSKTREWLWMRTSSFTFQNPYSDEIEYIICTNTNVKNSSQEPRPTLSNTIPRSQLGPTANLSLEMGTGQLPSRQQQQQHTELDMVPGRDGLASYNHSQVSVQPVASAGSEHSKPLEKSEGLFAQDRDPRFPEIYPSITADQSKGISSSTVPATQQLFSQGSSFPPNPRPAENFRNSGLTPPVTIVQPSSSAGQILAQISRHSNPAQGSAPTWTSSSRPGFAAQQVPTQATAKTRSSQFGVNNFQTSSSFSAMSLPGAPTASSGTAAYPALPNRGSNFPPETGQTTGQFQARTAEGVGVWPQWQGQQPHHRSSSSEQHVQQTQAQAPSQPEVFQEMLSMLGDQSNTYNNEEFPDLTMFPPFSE

Regarding `N#Cc1cccc(C(=O)c2c[nH]c3ccccc23)n1` [Compound 108, 6-(1H-indole-3-carbonyl)pyridine-2-carbonitrile], the “cyp1a1 expression (qPCR)” value in series [1] is on record as “induced AhR-dependent cyp1a1 expression; also recorded: dose dependent induction of cyp1a1 expression”. Besides, the AhR nuclear translocation entry in series [2] is “localized in the nucleus; also recorded: rapid nuclear enrichment of AhR”.

The values above are taken from patent US12152016B2, “Aryl hydrocarbon receptor modulators and uses thereof” (Beth Israel Deaconess Medical Center, Inc., priority 2018, dated 2024).
